The values that follow come from US20260325685A1, “Radiopharmaceutical Compositions Targeting Carbonic Anhydrase IX and Uses Thereof” (RayzeBio, Inc., priority 2023, published 2026).

Like-named read-outs stand apart in the source and are kept apart here.

In one experiment the target is T1, human CA-XII (Homo sapiens, UniProt O43570).
T1 construct: purchased Creative BioMart CA12-261H
Nature of the experiment: Surface Plasmon Resonance (SPR) binding kinetics to recombinant human CA-XII (Biacore 8K, single-cycle kinetics, 1:1 binding model). As for the experimental part: (§1) G1. Surface Plasmon Resonance Assay Conditions for hCA-IX and hCA-XII
(§2) Surface Plasmon Resonance (SPR) experiments were conducted on a Biacore 8K instrument (Cytiva, Marlborough, MA) to determine the binding kinetics of the compound to recombinant human CA-IX (Acro, CA9-H82E3) and CA-XII (Creative BioMart, CA12-261H) proteins. The ligands were diluted to 10 μg/mL in PBS-P+ buffer (20 mM phosphate buffer, pH 7.4, with 2.7 mM KCl, 137 mM NaCl, and 0.05% Tween 20) and captured on Series S Streptavidin Sensor Chips (Cytiva, 29699621) to 1200-1800 response units (RU) using a flow rate of 5 μL/min and injection times of 180 seconds for human CA-IX and 75 seconds for human CA-XII. Analyte binding was evaluated using a single-cycle kinetics method over 9 analyte concentrations (100-0.39 nM) in PBS-P+ buffer with 1% DMSO using a 50 μL/min. flow rate, 120 second association time, and 1200 second dissociation time. The flow cell temperature was set to 25° C. Analyte binding curves were fit to a 1:1 binding kinetic model in Biacore Insight Evaluation software (version 4.0.8.20368) following reference flow cell subtraction and DMSO correction to derive the association and dissociation binding constants.
In general terms: Surface plasmon resonance follows binding to a sensor surface in real time, without labels.

The target in another experiment is T2, human CA-IX (Homo sapiens, UniProt Q16790).
T2 construct: purchased Acro CA9-H82E3
Nature of the experiment: Surface Plasmon Resonance (SPR) binding kinetics to recombinant human CA-IX (Biacore 8K, single-cycle kinetics, 1:1 binding model). As to the method: as §1, §2

Where [1] appears, read: Chelated Metal: None, 25° C., pH 7.4, read-out: CAXII KD.
The mark [2] stands for this setting: Chelated Metal: None; SPR, 25° C., pH 7.4; read-out: CAIX KD.
Setting [3] is: KD ratio CAXII/CAIX; Chelated Metal: None.
Setting [4] is: read-out: CAXII KD, Chelated Metal: Lu-175, 25° C., pH 7.4.
Setting [5] is: read-out: CAIX KD; Chelated Metal: Lu-175; SPR, 25° C., pH 7.4.
Where [6] appears, read: Chelated Metal: Lu-175, 25° C., pH 7.4, read-out: CAXII KD.
Setting [7] is: Chelated Metal: Lu-175; SPR, 25° C., pH 7.4; read-out: CAIX KD.

T1 sequence (O43570 25-354): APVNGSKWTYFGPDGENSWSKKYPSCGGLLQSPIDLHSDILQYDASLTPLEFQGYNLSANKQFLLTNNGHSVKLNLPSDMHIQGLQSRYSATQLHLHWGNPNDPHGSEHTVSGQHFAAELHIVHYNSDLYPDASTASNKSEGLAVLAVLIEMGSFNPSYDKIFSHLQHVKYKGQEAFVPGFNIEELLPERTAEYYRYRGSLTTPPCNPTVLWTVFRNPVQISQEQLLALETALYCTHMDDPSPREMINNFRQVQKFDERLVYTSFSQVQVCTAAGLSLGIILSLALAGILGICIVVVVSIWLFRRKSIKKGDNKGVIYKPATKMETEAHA

In the case of `CC(CCC(=O)N[C@@H](CC(=O)N[C@@H](CC(=O)N1CCN(C(=O)CN2CCN(CC(=O)O)CCN(CC(=O)O)CCN(CC(=O)O)CC2)C[C@H]1CCCCn1cc(C23CCC(C(=O)Nc4nnc(S(N)(=O)=O)s4)(CC2)C3)nn1)C(=O)O)C(=O)O)(c1ccc(O)cc1)c1ccc(O)cc1` [Compound 104.1], the Kd at human CA-XII (setting [1]) and at human CA-IX (setting [2]) was less than 1 nM each time. Further, the “Ratio (CAXII/CAIX)” value on human CA-IX (setting [3]) was “* (1 < * < 5)”.
For `CC(CCC(=O)N[C@@H](CC(=O)N[C@@H](CC(=O)N1CCN(C(=O)CN2CCN(CC(=O)O)CCN(CC(=O)O)CCN(CC(=O)O)CC2)C[C@@H]1CCCCn1cc(C23CCC(C(=O)Nc4nnc(S(N)(=O)=O)s4)(CC2)C3)nn1)C(=O)O)C(=O)O)(c1ccc(O)cc1)c1ccc(O)cc1` [Compound 104.2], the Kd at human CA-XII (setting [1]) and at human CA-IX (setting [2]) was less than 1 nM throughout. Also, on human CA-IX (setting [3]), the “Ratio (CAXII/CAIX)” value is “* (1 < * < 5)”.
For `CC(CCC(=O)N[C@@H](CC(=O)N[C@@H](CC(=O)N1CCN(C(=O)CN2CCN(CC(=O)O)CCN(CC(=O)O)CCN(CC(=O)O)CC2)CC1CCCCn1cc(CCCC(=O)Nc2nnc(S(N)(=O)=O)s2)nn1)C(=O)O)C(=O)O)(c1ccc(O)cc1)c1ccc(O)cc1.[Lu+3]` (stereo partly shown) [Compound 104], the figures for the dissociation constant (Kd) at human CA-XII (setting [4]) and at human CA-IX (setting [5]) were 2.5 to 10 nM and 1 to 2.5 nM, respectively.
The corresponding values for `CC(CCC(=O)N[C@@H](CC(=O)N[C@@H](CC(=O)N1CCN(C(=O)CN2CCN(CC(=O)O)CCN(CC(=O)O)CCN(CC(=O)O)CC2)C[C@H]1C(=O)NCCn1cc(C23CC(C(=O)Nc4nnc(S(N)(=O)=O)s4)(C2)C3)nn1)C(=O)O)C(=O)O)(c1ccc(O)cc1)c1ccc(O)cc1.[Lu+3]` [Compound 106] are 2.5 to 10 nM and less than 1 nM.
Take `CC(CCC(=O)N[C@@H](CC(=O)N[C@@H](CC(=O)N1CCN(C(=O)CN2CCN(CC(=O)O)CCN(CC(=O)O)CCN(CC(=O)O)CC2)CC1C(=O)NCCn1cc(C23CCC(C(=O)Nc4nnc(S(N)(=O)=O)s4)(CC2)C3)nn1)C(=O)O)C(=O)O)(c1ccc(O)cc1)c1ccc(O)cc1.[Lu+3]` (stereo partly shown) [Compound 107.1]: the Kd at human CA-XII (setting [6]) and on human CA-IX (setting [7]) was less than 1 nM each time.
As to `CC(CCC(=O)N[C@@H](CC(=O)N[C@@H](CC(=O)N1CCN(C(=O)CN2CCN(CC(=O)O)CCN(CC(=O)O)CCN(CC(=O)O)CC2)C[C@H]1C(=O)NCCn1cc(C23CCC(C(=O)Nc4nnc(S(N)(=O)=O)s4)(CC2)C3)nn1)C(=O)O)C(=O)O)(c1ccc(O)cc1)c1ccc(O)cc1.[Lu+3]` [Compound 107.2], the Kd at human CA-XII (setting [6]) and on human CA-IX (setting [7]) was less than 1 nM each time.
In the case of `CC(CCC(=O)N[C@@H](CC(=O)N[C@@H](CC(=O)N1CCN(C(=O)CN2CCN(CC(=O)O)CCN(CC(=O)O)CCN(CC(=O)O)CC2)C[C@@H]1C(=O)NCCn1cc(C23CC(C(=O)Nc4nnc(S(N)(=O)=O)s4)(C2)C3)nn1)C(=O)O)C(=O)O)(c1ccc(O)cc1)c1ccc(O)cc1.[Lu+3]` [Compound 107.3], the values for the Kd on human CA-XII (setting [6]) and on human CA-IX (setting [7]) were more than 10 nM and 1 to 2.5 nM, respectively.
As for `CC(CCC(=O)N1CCC(C(=O)O)(C(=O)NCC(=O)N2CCN(C(=O)CN3CCN(CC(=O)O)CCN(CC(=O)O)CCN(CC(=O)O)CC3)C[C@@H]2C(=O)NCCn2cc(C34CC(C(=O)Nc5nnc(S(N)(=O)=O)s5)(C3)C4)nn2)CC1)(c1ccc(O)cc1)c1ccc(O)cc1.[Lu+3]` [Compound 107.4], the dissociation constant Kd (in general, the equilibrium constant for the complex coming apart) on human CA-XII (setting [6]) was more than 10 nM; at human CA-IX (setting [7]) it was 1 to 2.5 nM.
Take `CC(CCC(=O)N[C@@H](CC(=O)N[C@@H](CC(=O)N1CCN(C(=O)CN2CCN(CC(=O)O)CCN(CC(=O)O)CCN(CC(=O)O)CC2)C[C@H]1C(=O)NCCn1cc(C23CCC(C(=O)Nc4nnc(S(N)(=O)=O)s4)(C2)C3)nn1)C(=O)O)C(=O)O)(c1ccc(O)cc1)c1ccc(O)cc1.[Lu+3]` [Compound 107.5]: the Kd on human CA-XII (setting [6]) and on human CA-IX (setting [7]) was less than 1 nM each time.
As for `CC(CCCC(=O)N1CCC(C(=O)O)(C(=O)NCC(=O)N2CCN(C(=O)CN3CCN(CC(=O)O)CCN(CC(=O)O)CCN(CC(=O)O)CC3)C[C@@H]2C(=O)NCCn2cc(C34CC(C(=O)Nc5nnc(S(N)(=O)=O)s5)(C3)C4)nn2)CC1)(c1ccc(O)cc1)c1ccc(O)cc1.[Lu+3]` [Compound 107.6], the Kd at human CA-XII (setting [6]) is more than 10 nM; on human CA-IX (setting [7]), less than 1 nM.
As to `NS(=O)(=O)c1nnc(NC(=O)C23CCC(c4cn(CCNC(=O)[C@@H]5CN(C(=O)CN6CCN(CC(=O)O)CCN(CC(=O)O)CCN(CC(=O)O)CC6)CCN5C(=O)CNC(=O)C5(C(=O)O)CCN(C(=O)CCCc6ccc(O)cc6)CC5)nn4)(CC2)CC3)s1.[Lu+3]` [Compound 107.7], the Kd on human CA-XII (setting [6]) was 1 to 2.5 nM; at human CA-IX (setting [7]), less than 1 nM.
On the same counts, the results for `CC(CCC(=O)N1CCOC[C@H]1C(=O)N[C@@H](CC(=O)N1CCN(C(=O)CN2CCN(CC(=O)O)CCN(CC(=O)O)CCN(CC(=O)O)CC2)C[C@@H]1C(=O)NCCn1cc(C23CC(C(=O)Nc4nnc(S(N)(=O)=O)s4)(C2)C3)nn1)C(=O)O)(c1ccc(O)cc1)c1ccc(O)cc1.[Lu+3]` [Compound 107.8] are more than 10 nM and 1 to 2.5 nM.
Consider `CC(CCCC(=O)N1CCC(C(=O)O)(C(=O)NCC(=O)N2CCN(C(=O)CN3CCN(CC(=O)O)CCN(CC(=O)O)CCN(CC(=O)O)CC3)C[C@H]2C(=O)NCCn2cc(C34CCC(C(=O)Nc5nnc(S(N)(=O)=O)s5)(CC3)CC4)nn2)CC1)(c1ccc(O)cc1)c1ccc(O)cc1.[Lu+3]` [Compound 107.9], for which the dissociation constant (Kd) at human CA-XII (setting [6]) was 1 to 2.5 nM; on human CA-IX (setting [7]), less than 1 nM.
In the case of `NS(=O)(=O)c1nnc(NC(=O)C23CCC(c4cn(CCNC(=O)[C@@H]5CN(C(=O)CN6CCN(CC(=O)O)CCN(CC(=O)O)CCN(CC(=O)O)CC6)CCN5C(=O)CNC(=O)C5(C(=O)O)CCN(C(=O)CCC6CCCCC6)CC5)nn4)(CC2)CC3)s1.[Lu+3]` [Compound 107.10], the equilibrium dissociation constant (Kd) on human CA-XII (setting [6]) and at human CA-IX (setting [7]) was less than 1 nM each time.
In the case of `CC(CCC(=O)N[C@@H](CCC(=O)N1CCN(C(=O)CN2CCN(CC(=O)O)CCN(CC(=O)O)CCN(CC(=O)O)CC2)C[C@@H]1C(=O)NCCn1cc(C23CC(C(=O)Nc4nnc(S(N)(=O)=O)s4)(C2)C3)nn1)C(=O)O)(c1ccc(O)cc1)c1ccc(O)cc1.[Lu+3]` [Compound 107.11], the results for the Kd at human CA-XII (setting [6]) and at human CA-IX (setting [7]) were more than 10 nM and less than 1 nM, respectively.
In the case of `CC(CCCC(=O)N1CCC(C(=O)O)(C(=O)NCC(=O)N2CCN(C(=O)CN3CCN(CC(=O)O)CCN(CC(=O)O)CCN(CC(=O)O)CC3)C[C@@H]2C(=O)NCCn2cc(C34CC(C(=O)Nc5nnc(S(N)(=O)=O)s5)(C3)C4)nn2)CC1)(c1ccc(O)cc1)c1ccc(O)cc1.[Lu+3]` [Compound 107.12], the dissociation constant (Kd) on human CA-XII (setting [6]) is more than 10 nM; at human CA-IX (setting [7]), 1 to 2.5 nM.
The corresponding values for `CC(CCC(=O)N[C@@H](CC(=O)N[C@@H](CCC(=O)N1CCN(C(=O)CN2CCN(CC(=O)O)CCN(CC(=O)O)CCN(CC(=O)O)CC2)C[C@@H]1C(=O)NCCn1cc(C23CC(C(=O)Nc4nnc(S(N)(=O)=O)s4)(C2)C3)nn1)C(=O)O)C(=O)O)(c1ccc(O)cc1)c1ccc(O)cc1.[Lu+3]` [Compound 107.13] are more than 10 nM and 1 to 2.5 nM.
On the same counts, the results for `CC(CCC(=O)N[C@@H](CC(=O)N[C@@H](CCC(=O)N1CCN(C(=O)CN2CCN(CC(=O)O)CCN(CC(=O)O)CCN(CC(=O)O)CC2)C[C@@H]1Cn1cc(C23CC(C(=O)Nc4nnc(S(N)(=O)=O)s4)(C2)C3)nn1)C(=O)O)C(=O)O)(c1ccc(O)cc1)c1ccc(O)cc1.[Lu+3]` [Compound 107.14] are less than 1 nM and less than 1 nM.
On the same counts, the results for `CCCCNc1c(F)c(S(N)(=O)=O)c(F)c(F)c1S(=O)(=O)CCOCc1cn(CCNC(=O)[C@H]2CN(C(=O)CN3CCN(CC(=O)O)CCN(CC(=O)O)CCN(CC(=O)O)CC3)CCN2C(=O)C[C@H](NC(=O)[C@@H]2COCCN2C(=O)CCC(C)(c2ccc(O)cc2)c2ccc(O)cc2)C(=O)O)nn1.[Lu+3]` [Compound 107.15] are more than 10 nM and 1 to 2.5 nM.
In the case of `NS(=O)(=O)c1nnc(NC(=O)C23CC(c4cn(CCNC(=O)[C@H]5CN(C(=O)CN6CCN(CC(=O)O)CCN(CC(=O)O)CCN(CC(=O)O)CC6)CCN5C(=O)CC[C@H](NC(=O)Cc5n[nH]c6ccccc56)C(=O)O)nn4)(C2)C3)s1.[Lu+3]` [Compound 107.16], the Kd at human CA-XII (setting [6]) was in the range of 2.5 to 10 nM; at human CA-IX (setting [7]), 1 to 2.5 nM.
The corresponding values for `NS(=O)(=O)c1nnc(NC(=O)C23CC(c4cn(CCNC(=O)[C@H]5CN(C(=O)CN6CCN(CC(=O)O)CCN(CC(=O)O)CCN(CC(=O)O)CC6)CCN5C(=O)CC[C@H](NC(=O)c5n[nH]c6ccccc56)C(=O)O)nn4)(C2)C3)s1.[Lu+3]` [Compound 107.17] are 1 to 2.5 nM and less than 1 nM.
In the case of `NS(=O)(=O)c1nnc(NC(=O)C23CC(c4cn(CCNC(=O)[C@H]5CN(C(=O)CN6CCN(CC(=O)O)CCN(CC(=O)O)CCN(CC(=O)O)CC6)CCN5C(=O)[C@@H]5COCCN5C(=O)Cc5n[nH]c6ccccc56)nn4)(C2)C3)s1.[Lu+3]` [Compound 107.18], the dissociation constant Kd at human CA-XII (setting [6]) was more than 10 nM; on human CA-IX (setting [7]) it was 2.5 to 10 nM.
